From patent US7091205B2, “Use of tetramethylpyrazine in the treatment of brain tumor” (priority 2004, dated 2006)

Columns and labels:
glioma cells = settings: Ishiuchi et al., 2002; cited from earlier work
rat C6 glioma cell line [1] = experiment: Determination of cell death by propidium iodide fluorescence (flow cytometry); type: cell-based; settings: 200 μM and 400 μM TMP, 24 hours; p<0.05 vs control; FIG. 1
Procedure: (§1) The rat C6 glioma cell line was purchased from the Food Industry Research and Development Institute, Taiwan. The cell culture within the tubes was transferred into a 15 ml centrifugation tube and centrifuged at 900 rpm for 3 minutes. Resulted supernatant was removed and 4 ml 10% FBS-DMEM was added to the centrifugation tube and sufficiently mixed with the cell pellet. The cells were counted and cultured in a 24-well plate (2×10^4 cells per well) for subsequent in vitro experiments.
(§2) The cultured C6 glioma cells were treated with TMP (Fluka, F-87915) at final concentrations of 50 μM, 100 μM, 200 μM, and 400 μM for 24 hours.
The degree of damage to glioma cells was measured as the intensity of propidium iodide (PI) fluorescence. PI is a fluorescent dye that binds DNA, with an excitation wavelength of 485 nm and an emission wavelength of 620 nm. When a cell is damaged, the permeability of the cell membrane is increased and PI can enter the cell to bind DNA.
The TMP-treated glioma cells were treated with 5 ng/ml PI (Molecular Probes, P-1304) for 1 hour, and then washed with 0.1 M PBS. The intensity of PI fluorescence was read by flow cytometry (FACSort).

rat C6 glioma cell line [2] = experiment: Determination of Ca2+ permeability (Fura-2 AM, glutamate-induced Ca2+ increase); type: cell-based; settings: 50 μM to 400 μM TMP, 24 hours; 200 μM glutamate for 20 seconds; p<0.05 vs control; FIG. 2
Procedure: as §1, §2
The TMP-treated glioma cells were washed with running buffer for three times, put in a 5 μM Fura-2 AM solution for 30 minutes, and treated with 200 μM glutamate for 20 seconds. The change of Ca^2+ concentration within glioma cells was observed on a fluorescence microscope (IX-70, Olympus, Japan).

rat C6 glioma cell line [3] = experiment: Determination of cell cycle (PI staining, flow cytometry); type: cell-based; settings: 400 μM TMP, 24 hours; p<0.05 vs control; FIG. 3
Procedure: as §1, §2
The TMP-treated glioma cells were treated with trypsin/EDTA (Biochrom AG, L-2153), shaken off, collected in a 15 ml centrifugation tube, and centrifuged at 900 rpm for 3 minutes. The resulting supematant was removed and 1 ml PI solution (50 μg/ml PI, 0.1% sodium citrate, and 0.1% Triton X-100) was added. After one hour of dark incubation at room temperature, the intensity of PI fluorescence was read by flow cytometry (FACSort). In the G2/M phase, DNA has been replicated, and thus the intensity of PI fluorescence of cells in the G2/M phase should be two times of that of cells in the G1 phase.

[4] = test system: glioma cells implanted in frontal cortex of Sprague-Dawley rats; experiment: Survival time of rats implanted with glioma cells; type: in vivo, rat; settings: 0.4 mg subcutaneous twice a day from the 8th day following implantation
Procedure: (§3) Sprague-Dawley (S.D.) rats obtained from the Animal Center of National Yang-Ming University were kept in the following conditions: 12 hours of artificial lightening per day; 22±2° C. air conditioning; sufficient water and food. Eight-week old female rats, weighing 250 to 300 g, were used in the experiments.
(§4) The rats were anesthetized with chloride hydrate (400 mg/Kg, i.p.) and immobilized on a stereotaxic apparatus (Narishige, Japan). The skin on the head was cut with scissors to expose the skull. Bregma was found as the reference point for the location of microinjection (three-dimensional orientation point: A: 0.7 mm, L; 2.0 mm, H: 2.0 mm). The location was marked with a pen, and the skull at the location was drilled with a drill. Glioma cells (10^6 cells) were injected (2 μl/3 mins; total 10 μl) into the frontal cortex of the left brain of the rats with a microinjector.
(§5) The rats were divided into two groups. […] The rats of the TMP group received TMP treatment (0.4 mg, subcutaneous injection, twice a day) from the 8th day following the implantation. The survival days of rats of the two groups were recorded.

[5] = test system: glioma cells implanted in frontal cortex of Sprague-Dawley rats; experiment: Activity of glioma by micro positron emission tomography (18F-FDG); type: in vivo; settings: 15th day following implantation; one rat; TMP from the 8th day; highly activated tumor still exists in control rat; FIG. 6 D to F
Procedure: as §3, §4, §5
To determine the activity of glioma cells in the rats, the activity profiles of the tumors were obtained by micro positron emission tomography (micro PET) on the 8th and 15th day following the implantation of glioma cells. […]

[6] = Tsai and Liang, 2001; cited from earlier work
[7] = Pang et al., 1996; cited from earlier work
neurons = settings: through protecting mitochondria and inhibiting free radical generation; Shih et al, 2002; cited from earlier work

## C[C@]12N[C@H](Cc3ccccc31)c1ccccc12 [MK801]
Glioma cells
  proliferation of glioma cells: can effectively inhibit the proliferation of glioma cells

## Cc1nc(C)c(C)nc1C [TMP, tetramethylpyrazine]
Rat C6 glioma cell line [1]
  damage to glioma cells (intensity of PI fluorescence): resulted in glioma cell death
Rat C6 glioma cell line [2]
  Ca2+ concentration within glioma cells resulting from treatment with glutamate: effectively reduced Ca^2+ concentration within glioma cells
Rat C6 glioma cell line [3]
  ratio of cells in the G2/M phase: effectively reduced the ratio of cells in the G2/M phase
[4]; FIG. 4(B)
  survival time following implantation, half of the rats of the TMP group: 40 days
[4]; control rats died after 15 to 22 days, FIG. 4
  survival time following implantation, all rats of the TMP group: at least 22 days
[5]
  micro PET image of tumor activity: no image of a highly activated tumor
[6]
  crossing of the blood-brain barrier: can cross the blood-brain barrier
[7]
  increase of the concentration of calcium: can inhibit the increase of the concentration of calcium
neurons
  excitotoxicity to neurons induced by kainite: can reduce the excitotoxicity to neurons induced by kainite
